The supplement of paper PMC10307832

Columns and labels:
Test in all cases: relative viability (nuclei count vs DMSO), 5 days (fraction); higher = more cells survive
Lestaurtinib + Olaparib = compound: C[C@]12O[C@H](C[C@]1(O)CO)n1c3ccccc3c3c4c(c5c6ccccc6n2c5c31)CNC4=O [Lestaurtinib] + O=C(c1cc(Cc2n[nH]c(=O)c3ccccc23)ccc1F)N1CCN(C(=O)C2CC2)CC1 [Olaparib] (partner 8 µM)
Method in brief: (§1)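 Relative viability equals treated-well nuclei counts divided by vehicle-well nuclei counts. Counts came from 4× images of lung cancer cell lines grown in 1536-well plates for 5 days after pin-tool dosing on the day after seeding. Dosing used one drug alone or a fixed anchor-drug dose plus five library-drug doses (not always all listed) in √10 steps, and values are medians of duplicate plates.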

Lestaurtinib + AZD7762 = compound: C[C@]12O[C@H](C[C@]1(O)CO)n1c3ccccc3c3c4c(c5c6ccccc6n2c5c31)CNC4=O [Lestaurtinib] + NC(=O)Nc1cc(-c2cccc(F)c2)sc1C(=O)N[C@H]1CCCNC1 [AZD7762] (partner 0.2 µM)
Method in brief: as §1

TPCA-1 + Trametinib = compound: C1=CC(=CC=C1C2=CC(=C(S2)NC(=O)N)C(=O)N)F [TPCA-1] + CC(=O)Nc1cccc(-n2c(=O)n(C3CC3)c(=O)c3c(Nc4ccc(I)cc4F)n(C)c(=O)c(C)c32)c1 [Trametinib] (partner 0.02 µM)
Method in brief: as §1

[1] = compound: C1/C(=C\C2=CC=CS2)/C(=O)/C(=C/C3=CC=CS3)/C1 + CC(=O)Nc1cccc(-n2c(=O)n(C3CC3)c(=O)c3c(Nc4ccc(I)cc4F)n(C)c(=O)c(C)c32)c1 [Trametinib] (partner 0.02 µM)
Method in brief: as §1

Cell Line | relative viability (Lestaurtinib + Olaparib; first compound 0.005 µM) | relative viability (Lestaurtinib + Olaparib; first compound 0.01581 µM) | relative viability (Lestaurtinib + Olaparib; first compound 0.05 µM) | relative viability (Lestaurtinib + Olaparib; first compound 0.1581 µM) | relative viability (Lestaurtinib + Olaparib; first compound 0.5 µM) | relative viability (Lestaurtinib + AZD7762; first compound 0.005 µM) | relative viability (Lestaurtinib + AZD7762; first compound 0.01581 µM) | relative viability (Lestaurtinib + AZD7762; first compound 0.05 µM) | relative viability (Lestaurtinib + AZD7762; first compound 0.1581 µM) | relative viability (Lestaurtinib + AZD7762; first compound 0.5 µM) | relative viability (TPCA-1 + Trametinib; first compound 0.04 µM) | relative viability (TPCA-1 + Trametinib; first compound 0.1265 µM) | relative viability (TPCA-1 + Trametinib; first compound 0.4 µM) | relative viability (TPCA-1 + Trametinib; first compound 1.265 µM) | relative viability (TPCA-1 + Trametinib; first compound 4 µM) | relative viability ([1]; first compound 0.2 µM) | relative viability ([1]; first compound 0.6325 µM) | relative viability ([1]; first compound 2 µM) | relative viability ([1]; first compound 6.325 µM) | relative viability ([1]; first compound 20 µM)
NCI-H596 | 0.646 | 0.669 | 0.61 | 0.66 | 0.696 | 1.13 | 0.95 | 0.893 | 1.13 | 1.05 | 0.801 | 0.78 | 0.74 | 0.884 | 0.658 | 0.807 | 0.763 | 0.871 | 0.699 | 0.727
NCI-H647 | 0.67 | 0.67 | 0.186 | 0.211 | 0.108 | 0.307 | 0.756 | 0.275 | 0.165 | 0.0697 | 0.553 | 0.444 | 0.47 | 0.382 | 0.277 | 0.464 | 0.49 | 0.407 | 0.467 | 0.447
NCI-H650 | 0.43 | 0.413 | 0.382 | 0.319 | 0.28 | 0.939 | 1.07 | 0.706 | 0.687 | 0.302 | 1.08 | 0.857 | 0.948 | 0.862 | 0.813 | 1.11 | 1 | 0.884 | 0.943 | 0.944
NCI-H727 | 0.812 | 0.604 | 0.731 | – | 0.678 | 0.564 | 0.633 | 0.522 | – | 0.452 | 0.393 | 0.361 | 0.442 | 0.421 | 0.357 | 0.379 | 0.414 | 0.373 | – | 0.374
NCI-H838 | 0.911 | 0.796 | 0.549 | 0.348 | 0.162 | 1.01 | 0.951 | 0.933 | 0.873 | 0.681 | 0.599 | 0.457 | 0.533 | 0.336 | 0.406 | 0.491 | 0.516 | 0.488 | 0.448 | 0.44
NCI-H1355 | 0.804 | 0.754 | 0.563 | 0.566 | 0.369 | 0.839 | 0.815 | 0.574 | 0.54 | 0.422 | 0.494 | 0.384 | 0.406 | 0.381 | 0.41 | 0.42 | 0.43 | 0.457 | 0.341 | 0.407
NCI-H1395 | 0.498 | 0.494 | 0.426 | 0.406 | 0.369 | 0.385 | 0.405 | 0.407 | 0.384 | 0.325 | 1.23 | 0.939 | 1.11 | 1.05 | 0.884 | 1.13 | 0.996 | 1.08 | 0.88 | 1.09
NCI-H1437 | 0.671 | 0.662 | 0.571 | 0.67 | 0.553 | 1.13 | 1.2 | 0.941 | 1.12 | 0.945 | 0.581 | 0.493 | 0.521 | 0.511 | 0.453 | 0.51 | 0.52 | 0.442 | 0.461 | 0.428
